{"source": "patent US9040713B2", "about": "“Methods of managing blood sugar levels and compositions related thereto” (EMORY UNIVERSITY, priority 2010, dated 2015)", "key": {"EGFR": {"test_system": "EGFR", "assay": "EGFR phosphorylation in cells (immunoblotting)", "type": "cell-based", "conditions": "HEK293 cells, 10 μM, 15 min", "procedure": "(§1) (A) DDN and CSN activate IR and its downstream signaling in CHO-IR cells. […] The cell lysates were analyzed by immunoblotting with anti-phospho-IR antibodies, or immunoprecipitated by PY20 and analyzed using anti-IR and anti-IRS-1, respectively. (B) DDN and CSN induce IR phosphorylation in a dose-dependent manner. CHO-IR cells were treated with the small compounds at different concentrations for 15 min, and the IR phosphorylation was monitored by immunoprecipitation and immunoblotting. (C) DDN, CSN induce IR phosphorylation in a time-dependent manner. […] (D) DDN and CSN induce IR phosphorylation and its downstream signaling in a dose-dependent manner. […] (E) DDN and CSN cannot induce IGF-1R or EGFR phosphorylation. CHO-IGF-1R or HEK293 cells were treated with EGF (100 nM), IGF-1 (100 nM), DDN (10 μM) or CSN (10 μM) for 15 min. The cell lysates were analyzed by immunoblotting with anti-pIGF-1R and anti-pEGFR.\n(§2) (A) Chemical structure of 4524-E7. (B) Effect of 4524-E7 and other 1,4-naphthoquinone derivatives on IR phosphorylation in CHO-IR cells. CHO-IR cells were cultured in 96-well plates and treated with 5 μM compounds for 15 min at 37 C. Cells were lysed, and IR phosphorylations were tested by ELISA. The IR phosphorylation activities of the tested compounds were expressed as a percentage of the vehicle. (C) 4524-E7 and 1,4-naphthoquinone derivates activate IR and its downstream signaling in CHO-IR cells. […] The cell lysates were analyzed by immunoblotting with various indicated antibodies. The phosphorylated IR was immunoprecipitated using PY20 and analyzed by immunoblotting with anti-IR13 antibody. […] The phosphorylation of each receptor was determined by Western blot using specific antibodies as indicated. (E) 4524-E7 activates IR through its ICD. Upper panel: Diagram of chimaeric receptors. Lower panel: His-tagged wild-type IR, IGFR-IR, IR-IGFR, and IR-EGFR constructs were transfected into CHO cells followed vehicle or 5 μM 4524-E7 treatment for 30 min. Then the cells were lysated and the transfected receptor fused to His tag were pulled down with Ni+ beads, followed by western blot against anti-p-Tyr and anti-His. The cell lysates were tested with anti-p-Akt and anti-Akt.\n(§3) A cell-based ELISA assay was developed with an IR stably transfected Chinese Hamster Ovary (CHO-IR) cell line. The cells were seeded in a 96-well plate and treated with 10 μM (15 min) compounds. The cell lysates were subjected to the sandwich ELISA using immobilized anti-phosphotyrosine antibody and anti-IR antibody. […] Among the positive hits, 1,4-naphthoquinone compounds were identified that can selectively activate IR but not IGF-1R (FIG. 1A). […] Total IR tyrosine phosphorylation was further confirmed by immunoprecipitation using anti-phosphotyrosine (PY20) antibody (FIG. 2A, 3rd panel). […]"}, "IGF-1R": {"test_system": "IGF-1R", "assay": "IGF-1R phosphorylation in cells (immunoblotting)", "type": "cell-based", "conditions": "CHO-IGF-1R cells, 10 μM, 15 min", "procedure": "as §1, §2, §3"}, "IR": {"molecular_target": "IR (Homo sapiens, UniProt P06213)", "sequence (P06213 763-1382 limits assumed)": "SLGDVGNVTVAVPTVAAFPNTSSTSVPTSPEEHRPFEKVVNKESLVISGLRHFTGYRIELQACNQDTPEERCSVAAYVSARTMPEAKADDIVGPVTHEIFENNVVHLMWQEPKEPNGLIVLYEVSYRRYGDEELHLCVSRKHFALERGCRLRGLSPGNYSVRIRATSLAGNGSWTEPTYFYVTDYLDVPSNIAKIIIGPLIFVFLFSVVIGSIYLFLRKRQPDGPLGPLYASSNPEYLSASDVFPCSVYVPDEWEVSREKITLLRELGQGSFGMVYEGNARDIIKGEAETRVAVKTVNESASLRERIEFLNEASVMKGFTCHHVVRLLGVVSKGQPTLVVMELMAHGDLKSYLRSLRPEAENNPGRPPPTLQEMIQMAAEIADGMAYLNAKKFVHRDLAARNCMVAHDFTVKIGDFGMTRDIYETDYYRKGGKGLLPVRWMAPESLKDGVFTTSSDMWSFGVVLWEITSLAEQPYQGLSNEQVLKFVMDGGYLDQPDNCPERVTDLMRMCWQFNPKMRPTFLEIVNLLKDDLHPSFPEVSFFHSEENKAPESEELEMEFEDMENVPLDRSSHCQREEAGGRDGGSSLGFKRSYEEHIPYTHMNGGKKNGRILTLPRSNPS", "sequence (P06213 28-758 limits assumed)": "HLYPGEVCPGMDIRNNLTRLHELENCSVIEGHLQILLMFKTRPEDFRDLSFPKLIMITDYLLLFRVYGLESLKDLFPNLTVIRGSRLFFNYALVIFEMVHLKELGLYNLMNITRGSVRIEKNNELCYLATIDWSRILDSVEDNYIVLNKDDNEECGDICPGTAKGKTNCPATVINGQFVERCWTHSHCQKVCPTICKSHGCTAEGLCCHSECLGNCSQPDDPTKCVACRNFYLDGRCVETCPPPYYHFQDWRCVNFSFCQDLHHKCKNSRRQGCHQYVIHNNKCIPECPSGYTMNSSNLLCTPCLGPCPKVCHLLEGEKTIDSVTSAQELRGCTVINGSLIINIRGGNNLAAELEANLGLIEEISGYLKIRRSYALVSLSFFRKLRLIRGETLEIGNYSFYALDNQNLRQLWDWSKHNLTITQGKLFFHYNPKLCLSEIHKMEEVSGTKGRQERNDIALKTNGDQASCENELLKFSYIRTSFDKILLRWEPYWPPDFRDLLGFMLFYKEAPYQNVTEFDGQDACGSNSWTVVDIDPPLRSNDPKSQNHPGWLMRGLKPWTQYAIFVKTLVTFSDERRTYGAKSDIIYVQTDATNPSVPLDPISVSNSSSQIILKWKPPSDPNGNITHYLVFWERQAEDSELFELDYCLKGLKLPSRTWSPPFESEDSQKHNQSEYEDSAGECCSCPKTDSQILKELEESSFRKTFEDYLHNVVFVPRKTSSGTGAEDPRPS", "assay": "Immunoblotting of IR phosphorylation and downstream signaling in CHO-IR cells", "type": "cell-based", "parameters": "expressed in transfected cells; host or cells: CHO (CHO-IR, gift from Dr. Nicholas Webster, UCSD)", "procedure": "The cell lysates were analyzed by immunoblotting with anti-phospho-IR antibodies, or immunoprecipitated by PY20 and analyzed using anti-IR and anti-IRS-1, respectively. […] The cell lysates were analyzed by immunoblotting with anti-pIGF-1R and anti-pEGFR. […]\nA cell-based ELISA assay was developed with an IR stably transfected Chinese Hamster Ovary (CHO-IR) cell line. […] The cell lysates were subjected to the sandwich ELISA using immobilized anti-phosphotyrosine antibody and anti-IR antibody."}, "C57BL/6J mice": {"test_system": "C57BL/6J mice", "assay": "Lethality after administration to C57BL/6J mice", "type": "in vivo, mouse", "conditions": "intraperitoneal, even at low doses (1 mg/kg)", "procedure": "However, CSN was lethal to the mice even at low doses (1 mg/kg) (data not shown). […] The kinetics of DDN in lowering blood glucose is different from that of insulin."}}}
{"smiles": "CSC1=C(SC)C(=O)c2ccccc2C1=O", "note": "[CSN, 2,3-Bis-methylsulfanyl-1,4-naphthoquinone]", "values": [{"measurement": "EGFR activation", "setting": "EGFR", "value": "Neither IGF-1R nor EGFR was activated"}, {"measurement": "IGF-1R activation", "setting": "IGF-1R", "value": "Neither IGF-1R nor EGFR was activated"}, {"measurement": "time at which IR activation peaked", "setting": "IR; 5 μM", "value": 60, "unit": "min"}, {"measurement": "time at which IR phosphorylation starts", "setting": "IR; 5 μM", "value": "5 to 15", "unit": "min"}, {"measurement": "tyrosine phosphorylation of IRS-1", "setting": "IR; 5 μM, 15 min", "value": "also increased"}, {"measurement": "tyrosine phosphorylation of the IR β subunit in Y1146 and Y1158/1162/1163", "setting": "IR; 5 μM, 15 min", "value": "strongly stimulated"}, {"measurement": "concentration stimulating the IR signal cascades", "setting": "IR; DDN or CSN 30 min, insulin 15 min", "value": 5, "unit": "µM"}, {"measurement": "lethality", "setting": "C57BL/6J mice", "value": "lethal to the animals"}]}
